Patent US20150376198A1, “MODULATORS OF VASOPRESSIN RECEPTORS WITH THERAPEUTIC POTENTIAL” (priority 2013, published 2015)
Read-outs that look alike come from different tables or passages of the source.

Target: human Arginine Vasopressin Receptor 1a (AVPR1a) (Homo sapiens, UniProt P37288)
Test: cell-based

Chain of human Arginine Vasopressin Receptor 1a (AVPR1a) (P37288 whole entry): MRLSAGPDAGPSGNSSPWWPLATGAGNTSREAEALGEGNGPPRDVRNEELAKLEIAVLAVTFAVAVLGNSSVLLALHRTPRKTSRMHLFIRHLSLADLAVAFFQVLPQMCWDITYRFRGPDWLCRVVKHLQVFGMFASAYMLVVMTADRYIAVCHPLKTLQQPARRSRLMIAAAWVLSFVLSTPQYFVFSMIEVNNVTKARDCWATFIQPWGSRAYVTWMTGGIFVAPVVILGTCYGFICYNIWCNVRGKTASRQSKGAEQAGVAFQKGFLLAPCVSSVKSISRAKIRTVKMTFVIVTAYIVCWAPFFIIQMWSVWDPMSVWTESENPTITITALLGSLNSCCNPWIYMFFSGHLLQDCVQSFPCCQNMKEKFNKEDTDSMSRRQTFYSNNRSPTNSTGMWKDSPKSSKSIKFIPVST

SMILES | IC50 (read-out: V1a-R IC50) [nM] | IC50 [nM]
Cc1cc(N2CCC(C(=O)N(CC3CC3)c3ccc(Cl)cc3)CC2)ncc1Cl [Compound 216] | 41 | –
Cc1cc(C)nc(N2CCC(C(=O)N3CCCC(F)c4cc(Cl)ccc43)CC2)n1 (stereo not shown) [Compound 196] | 84 | –
Cc1cc(N2CCC(C(=O)N3CCCCc4cc(Cl)ccc43)CC2)nc(C)n1 [Compound 186] | 405 | –
O=C(C1CCN(c2nc3ccccc3o2)CC1)N(CC1CC1)c1ccc(Cl)cc1 [Compound 206] | 130 | –
Cc1cncc(C(=O)N2CCC(C(=O)N3CCCCc4cc(Cl)ccc43)CC2)c1 [Compound 117] | 1160 | –
Cc1cc(Cl)cnc1N1CCC(C(=O)N2CCCCc3cc(Cl)ccc32)CC1 [Compound 221] | 7 | –
O=C(C1CCN(c2ncc(Cl)cn2)CC1)N(CC1CC1)c1ccc(Cl)cc1 [Compound 167] | 195 | –
N#Cc1ccc(N2CCC(C(=O)N3CCCCc4cc(Cl)ccc43)CC2)nc1 [Compound 112] | 1230 | –
O=C(C1CCN(c2ncc(F)cn2)CC1)N1CCCCc2cc(Cl)ccc21 [Compound 162] | 35 | –
O=C(C1CCN(c2ncc3c(n2)CCC3)CC1)N1CCCCc2cc(Cl)ccc21 [Compound 215] | 7 | –
N#CC1(c2ccccc2)CCN(C(=O)N2CCCCc3cc(Cl)ccc32)CC1 [Compound 134] | – | 358
Cc1cc(C)nc(N2CCC(C(=O)N(CCC(C)C)c3ccc(Cl)cc3)CC2)n1 [Compound 199] | 794 | –
Cc1cnc(N2CCN(C(=O)N(CC3CC3)c3ccc(Cl)cc3)CC2)nc1 [Compound 156] | 17 | –
Cc1nc(N2CCC(C(=O)N3CCCCc4cc(Cl)ccc43)CC2)ncc1F [Compound 183] | 16 | –
O=C(C1CCN(c2ccc(C(F)(F)F)cn2)CC1)N1CCCCc2cc(Cl)ccc21 [Compound 226] | 20 | –
O=C(C1CCN(c2ncc3c(n2)CCC3)CC1)N(CC1CC1)c1ccc(Cl)cc1 [Compound 208] | 33 | –
O=C(c1cccc(C(F)(F)F)c1)N1CCC(C(=O)N2CCCCc3cc(Cl)ccc32)CC1 [Compound 88] | 595 | –

SMILES | IC50 (read-out: V1a-R IC50) [nM] | IC50 [nM]
O=C(c1cc2ccccc2[nH]1)N1CCC(C(=O)N2CCCCc3cc(Cl)ccc32)CC1 [Compound 121] | 446 | –
Cc1nc(N2CCC(C(=O)N3CCCCc4cc(Cl)ccc43)CC2)c2ccccc2n1 [Compound 185] | 32 | –
Cc1cc(N2CCC(C(=O)N(CC3CC3)c3ccc(Cl)cc3)CC2)nc(C)n1 [Compound 192] | 1250 | –
Cc1ccnc(N2CCC(C(=O)N(CC3CC3)c3ccc(Cl)cc3)CC2)c1 [Compound 148] | 3 | –
Cc1cnc(N2CCC(C(=O)N(CC3CC3)c3ccc(Cl)cc3)CC2)nc1 [Compound 166] | 38 | –
O=C(C1CCN(c2nc3ccc(Cl)cc3o2)CC1)N1CCCCc2cc(Cl)ccc21 [Compound 214] | 45 | –
Cc1cnc(N2CCC(C(=O)N(CC3CC3)c3ccc(Cl)cc3)CC2)c(F)c1 [Compound 218] | 20 | –
O=C(C1CCN(c2ncccn2)CC1)N1CCCCc2cc(Cl)ccc21 [Compound 110] | 207 | –
N#Cc1cccnc1N1CCN(C(=O)N(CC2CC2)c2ccc(Cl)cc2)CC1 [Compound 159] | 81 | –
O=C(C1CCN(c2ccc(F)cn2)CC1)N(CC1CC1)c1ccc(Cl)cc1 [Compound 146] | – | 24
O=C(c1ccc(Cl)cc1Cl)N1CCC(C(=O)N2CCCCc3cc(Cl)ccc32)CC1 [Compound 89] | 1800 | –
Cc1cccnc1N1CCN(C(=O)N(CC2CC2)c2ccc(Cl)cc2)CC1 [Compound 160] | 8 | –
O=C(N1CCN(c2ncc(F)cn2)CC1)N(CC1CC1)c1ccc(Cl)cc1 [Compound 155] | 106 | –
O=C(N1CCC(c2ccccc2)CC1)N1CCCCc2cc(Cl)ccc21 [Compound 131] | 83 | –
O=C(N1CCN(c2ncc(Cl)cn2)CC1)N(CC1CC1)c1ccc(Cl)cc1 [Compound 157] | 206 | –
Cc1cccc(N2CCC(C(=O)N(CC3CC3)c3ccc(Cl)cc3)CC2)n1 [Compound 150] | 23 | –
Cc1nc(N2CCC(C(=O)N3CCCCc4cc(Cl)ccc43)CC2)ncc1Cl [Compound 184] | 26 | –
